Measurements from the OligoGym collection.
Oligonucleotides are written 5' to 3', each unit as a sugar letter and its base; * is a phosphorothioate linkage, no mark a phosphodiester; rarer units and linkages stand in square brackets, end groups in braces. Plain capitals give the bases only. d = 2'-deoxy (DNA); r = 2'-OH (RNA)

Biological target: NOG
Test: reporter assay of Huesken 2005
Details: siRNA
Note: test concentration or dose not given here.

In order of rising normalised inhibition (eCFP-eYFP dual reporter):
1. sense rUrUrGrGrCrCrCrArGrGrGrCrArArGrArArGrCdTdT / antisense rGrCrUrUrCrUrUrGrCrCrCrUrGrGrGrCrCrArAdGdC  41.1%
2. sense rArUrCrCrGrCrCrCrGrGrCrArCrCrCrArGrCrGdTdT / antisense rCrGrCrUrGrGrGrUrGrCrCrGrGrGrCrGrGrArUdGdT  42.7%
3. sense rGrCrArGrCrCrGrCrUrUrUrUrGrGrCrCrGrCrGdTdT / antisense rCrGrCrGrGrCrCrArArArArGrCrGrGrCrUrGrCdCdC  46.4%
4. sense rCrUrGrArArCrGrArGrArCrGrCrUrGrCrUrGrCdTdT / antisense rGrCrArGrCrArGrCrGrUrCrUrCrGrUrUrCrArGdAdT  46.9%
5. sense rUrCrGrCrArGrArCrArUrUrCrUrGrCrCrCrCrGdTdT / antisense rCrGrGrGrGrCrArGrArArUrGrUrCrUrGrCrGrAdCdC  47.6%
6. sense rArUrUrCrUrGrCrCrCrCrGrUrGrCrUrGrUrArCdTdT / antisense rGrUrArCrArGrCrArCrGrGrGrGrCrArGrArArUdGdT  51%
7. sense rArCrGrArCrCrUrGrGrGrCrArGrCrCrGrCrUrUdTdT / antisense rArArGrCrGrGrCrUrGrCrCrCrArGrGrUrCrGrUdTdC  51.1%
8. sense rCrCrArCrArUrCrCrGrCrCrCrGrGrCrArCrCrCdTdT / antisense rGrGrGrUrGrCrCrGrGrGrCrGrGrArUrGrUrGrGdAdG  51.4%
9. sense rGrGrArArCrGrArCrCrUrGrGrGrCrArGrCrCrGdTdT / antisense rCrGrGrCrUrGrCrCrCrArGrGrUrCrGrUrUrCrCdAdC  51.5%
10. sense rUrArCrGrCrGrUrGrGrArArCrGrArCrCrUrGrGdTdT / antisense rCrCrArGrGrUrCrGrUrUrCrCrArCrGrCrGrUrAdCdA  51.8%
11. sense rCrGrCrArGrArCrArUrUrCrUrGrCrCrCrCrGrUdTdT / antisense rArCrGrGrGrGrCrArGrArArUrGrUrCrUrGrCrGdAdC  53%
12. sense rArGrArGrUrUrCrUrCrCrGrArGrGrGrCrUrUrGdTdT / antisense rCrArArGrCrCrCrUrCrGrGrArGrArArCrUrCrUdAdG  55.1%
13. sense rGrArCrCrArGrCrUrGrCrUrGrCrGrGrCrArGrCdTdT / antisense rGrCrUrGrCrCrGrCrArGrCrArGrCrUrGrGrUrCdCdA  55.2%
14. sense rGrUrCrCrArArGrUrCrCrGrUrGrCrArCrCrUrCdTdT / antisense rGrArGrGrUrGrCrArCrGrGrArCrUrUrGrGrArCdGdG  55.7%
15. sense rCrArCrCrUrCrArCrGrGrUrGrCrUrGrCrGrGrUdTdT / antisense rArCrCrGrCrArGrCrArCrCrGrUrGrArGrGrUrGdCdA  56.3%
16. sense rCrArGrCrUrGrCrUrUrCrArGrUrArArGrCrGrCdTdT / antisense rGrCrGrCrUrUrArCrUrGrArArGrCrArGrCrUrGdCdC  56.5%
17. sense rUrGrUrGrGrUrCrGrCrArGrArCrArUrUrCrUrGdTdT / antisense rCrArGrArArUrGrUrCrUrGrCrGrArCrCrArCrAdGdC  57.5%
18. sense rGrArArCrGrArCrCrUrGrGrGrCrArGrCrCrGrCdTdT / antisense rGrCrGrGrCrUrGrCrCrCrArGrGrUrCrGrUrUrCdCdA  59.1%
19. sense rArCrArUrUrCrUrGrCrCrCrCrGrUrGrCrUrGrUdTdT / antisense rArCrArGrCrArCrGrGrGrGrCrArGrArArUrGrUdCdT  60%
20. sense rArUrCrUrCrCrArCrArUrCrCrGrCrCrCrGrGrCdTdT / antisense rGrCrCrGrGrGrCrGrGrArUrGrUrGrGrArGrArUdAdG  60.2%
21. sense rUrCrUrGrCrCrCrCrGrUrGrCrUrGrUrArCrGrCdTdT / antisense rGrCrGrUrArCrArGrCrArCrGrGrGrGrCrArGrAdAdT  61%
22. sense rCrArGrCrGrCrCrUrArArGrCrArArGrArArGrCdTdT / antisense rGrCrUrUrCrUrUrGrCrUrUrArGrGrCrGrCrUrGdCdT  62.6%
23. sense rGrCrCrGrUrCrCrArArGrUrCrCrGrUrGrCrArCdTdT / antisense rGrUrGrCrArCrGrGrArCrUrUrGrGrArCrGrGrCdTdT  66.1%
24. sense rGrCrUrGrCrGrCrUrCrGrCrUrGrCrUrCrGrGrGdTdT / antisense rCrCrCrGrArGrCrArGrCrGrArGrCrGrCrArGrCdAdG  67.1%
25. sense rUrCrArUrCrGrArArCrArCrCrCrArGrArCrCrCdTdT / antisense rGrGrGrUrCrUrGrGrGrUrGrUrUrCrGrArUrGrAdGdG  67.8%
26. sense rGrCrGrGrCrArGrCrGrGrCrCrGrUrCrGrGrGrGdTdT / antisense rCrCrCrCrGrArCrGrGrCrCrGrCrUrGrCrCrGrCdAdG  70.5%
27. sense rGrArCrGrCrUrGrCrUrGrCrGrCrUrCrGrCrUrGdTdT / antisense rCrArGrCrGrArGrCrGrCrArGrCrArGrCrGrUrCdTdC  70.9%
28. sense rGrArArCrGrArGrArCrGrCrUrGrCrUrGrCrGrCdTdT / antisense rGrCrGrCrArGrCrArGrCrGrUrCrUrCrGrUrUrCdAdG  74.1%
29. sense rGrUrGrCrArArGrCrCrGrUrCrCrArArGrUrCrCdTdT / antisense rGrGrArCrUrUrGrGrArCrGrGrCrUrUrGrCrArCdAdC  75.4%
30. sense rArGrGrGrCrArUrGrGrUrGrUrGrCrArArGrCrCdTdT / antisense rGrGrCrUrUrGrCrArCrArCrCrArUrGrCrCrCrUdCdG  75.7%
31. sense rGrArCrCrUrGrGrGrCrArGrCrCrGrCrUrUrUrUdTdT / antisense rArArArArGrCrGrGrCrUrGrCrCrCrArGrGrUrCdGdT  77.1%
32. sense rGrArUrCrArArArGrGrGrCrUrArGrArGrUrUrCdTdT / antisense rGrArArCrUrCrUrArGrCrCrCrUrUrUrGrArUrCdTdC  78.3%
33. sense rCrCrArGrCrUrGrCrUrGrCrGrGrCrArGrCrGrGdTdT / antisense rCrCrGrCrUrGrCrCrGrCrArGrCrArGrCrUrGrGdTdC  78.3%
34. sense rGrGrCrArUrGrGrUrGrUrGrCrArArGrCrCrGrUdTdT / antisense rArCrGrGrCrUrUrGrCrArCrArCrCrArUrGrCrCdCdT  79.1%
35. sense rGrCrUrGrCrGrGrUrGrGrCrGrCrUrGrUrCrArGdTdT / antisense rCrUrGrArCrArGrCrGrCrCrArCrCrGrCrArGrCdAdC  80.5%
36. sense rCrCrUrGrGrUrGrGrArCrCrUrCrArUrCrGrArAdTdT / antisense rUrUrCrGrArUrGrArGrGrUrCrCrArCrCrArGrGdGdG  81.7%
37. sense rGrCrCrGrGrCrGrGrCrCrArGrCrArCrUrArUrCdTdT / antisense rGrArUrArGrUrGrCrUrGrGrCrCrGrCrCrGrGrCdCdG  82.2%
38. sense rGrArCrCrCrArGrGrCrUrUrCrArUrGrGrCrCrAdTdT / antisense rUrGrGrCrCrArUrGrArArGrCrCrUrGrGrGrUrCdGdT  82.6%
39. sense rGrArArGrCrArGrCrGrCrCrUrArArGrCrArArGdTdT / antisense rCrUrUrGrCrUrUrArGrGrCrGrCrUrGrCrUrUrCdTdT  83%
40. sense rGrUrGrGrCrUrGrUrGrGrUrCrGrCrArGrArCrAdTdT / antisense rUrGrUrCrUrGrCrGrArCrCrArCrArGrCrCrArCdAdT  83.3%
41. sense rGrCrCrUrArArGrCrArArGrArArGrCrUrGrCrGdTdT / antisense rCrGrCrArGrCrUrUrCrUrUrGrCrUrUrArGrGrCdGdC  85.7%
42. sense rGrCrCrCrGrGrCrArCrCrCrArGrCrGrArCrArAdTdT / antisense rUrUrGrUrCrGrCrUrGrGrGrUrGrCrCrGrGrGrCdGdG  88.4%
43. sense rCrArGrArCrCrCrUrArUrCrUrUrUrGrArCrCrCdTdT / antisense rGrGrGrUrCrArArArGrArUrArGrGrGrUrCrUrGdGdG  88.8%
44. sense rCrCrUrArUrCrUrUrUrGrArCrCrCrCrArArGrGdTdT / antisense rCrCrUrUrGrGrGrGrUrCrArArArGrArUrArGrGdGdT  89.1%
45. sense rGrGrCrArArGrArArGrCrArGrCrGrCrCrUrArAdTdT / antisense rUrUrArGrGrCrGrCrUrGrCrUrUrCrUrUrGrCrCdCdT  91.3%
46. sense rGrGrGrCrArArGrArArGrCrArGrCrGrCrCrUrAdTdT / antisense rUrArGrGrCrGrCrUrGrCrUrUrCrUrUrGrCrCrCdTdG  93.3%
47. sense rCrArArGrGrArArArArGrGrArUrCrUrGrArArCdTdT / antisense rGrUrUrCrArGrArUrCrCrUrUrUrUrCrCrUrUrGdGdG  95.1%
48. sense rUrGrGrUrGrGrArCrCrUrCrArUrCrGrArArCrAdTdT / antisense rUrGrUrUrCrGrArUrGrArGrGrUrCrCrArCrCrAdGdG  96.4%
49. sense rGrCrGrArGrArUrCrArArArGrGrGrCrUrArGrAdTdT / antisense rUrCrUrArGrCrCrCrUrUrUrGrArUrCrUrCrGrCdTdC  96.7%
50. sense rArGrCrArArGrArArGrCrUrGrCrGrGrArGrGrAdTdT / antisense rUrCrCrUrCrCrGrCrArGrCrUrUrCrUrUrGrCrUdTdA  97.7%
51. sense rGrArArGrCrUrGrCrGrGrArGrGrArArGrUrUrAdTdT / antisense rUrArArCrUrUrCrCrUrCrCrGrCrArGrCrUrUrCdTdT  102%
52. sense rArCrCrUrCrArUrCrGrArArCrArCrCrCrArGrAdTdT / antisense rUrCrUrGrGrGrUrGrUrUrCrGrArUrGrArGrGrUdCdC  102%
